Experimental data from ChEMBL document CHEMBL1122800, “Synthesis of a tricyclic aphidicolin analogue that inhibits DNA synthesis in vitro” (J Med Chem, 1984).
Activity calls are given as the source filed them. The calls are words filed in the database; no cut-off is given here.

The compounds below were run on Nucleic Acid (assay: Ability of compound to inhibit DNA synthesis against the uptake of [3H]thymidine in freshly seeded cultures of SV-40 transformed WI-38 human lung fibroblast at a concentration 0.15 ug/mL.).
For `C[C@@]1(CO)[C@H](O)CC[C@@]2(C)[C@H]1CC[C@H]1C[C@@H]3C[C@@]12CC[C@]3(O)CO`, the inhibition was 50%. `C[C@@]1(CO)C(O)CC[C@]2(C)C3CC(O)CC3CC[C@@H]12` (some centres not stated) was tested, and the inhibition was 50%.

Each compound was assayed on Nucleic Acid (assay: Ability of compound to inhibit DNA synthesis against the uptake of [3H]thymidine in freshly seeded cultures of SV-40 transformed WI-38 human lung fibroblast; NA = no activity).
For `C[C@@]1(CO)C(O)CC[C@]2(C)C3CC(=O)CC3CC[C@@H]12` (some centres not stated), the inhibition was “inactive”. In the case of `C[C@]12CCC(O)[C@@](C)(CO)[C@@H]1CCC1C[C@H](O)C[C@@H]12` (some centres not stated), the inhibition is reported as “inactive”. For `C[C@]12CCC(O)[C@@](C)(CO)[C@@H]1CCC1CC(=O)C=C12` (some centres not stated), the inhibition was “inactive”. `C[C@]12CCC(O)[C@@](C)(CO)[C@@H]1CCC1CC(O)C=C12` (some centres not stated) was tested, and the inhibition was “inactive”. `C[C@]12CCC(O)[C@@](C)(CO)[C@@H]1CCC1CC(=O)C[C@@H]12` (some centres not stated) was tested, and the inhibition was “inactive”.
